# Reference: patent US8697701B2, “Solid germicidal composition and disinfection method” (Ueno Fine Chemicals Industry, Ltd., priority 2012, dated 2014)
# Legend:
# [1] = test system: Serratia marcescens (bacterium 2 isolated from a food factory); experiment: Test for inhibition of drug resistance development (repeated MIC, broth microdilution); assay type: cell-based; conditions: sample bacteria (iii) and (iv), eight MIC rounds, as compared to DDAC
# Protocol: According to the standard method (broth microdilution method) of Japanese Society of Chemotherapy, minimal inhibitory concentration (MIC) was continuously measured. The compositions shown in Table 7 were diluted with sterile water to obtain drug solutions with a concentration of the composition of 0.007 to 1.792% by weight, and a nutrient broth medium adjusted to a concentration twice as high as the specified concentration (manufactured by Eiken Chemical Co., Ltd., normal bouillon medium ‘Eiken’ E-MC35) was added thereto in an amount equal to the drug solution. The obtained mixture was stirred and then dispensed to a microtiter plate (96 well) in an amount of 150 μl/well. […] The diluted culture was then seeded in an amount of 7.5 μl/well to the microtiter plate containing the medium prepared as described above. The plate was incubated in a constant temperature oven at 30° C. for 48 hours, the growth of the bacterium was checked by visual inspection, and MIC was determined. […] Using the diluted culture, MIC was determined again in the same manner as described above. MIC was determined eight times in total by repeating the above procedure, and changes in MIC were confirmed.
# Sample Bacterium (iii): Serratia marcescens (Bacterium 2 Isolated from a Food Factory)
# [2] = cited from earlier work
# [3] = test system: Serratia marcescens (bacterium 1 isolated from a food factory); conditions: preliminary test, sensitization time 5 minutes
# Protocol: The following sample bacterium (i) isolated from a food factory was cultured in a BHI bouillon medium at 30° C. for 24 hours. A 0.03 ml of a liquid obtained by diluting the cultured bacterium with a physiological saline solution to the concentration on the order of 10^6 cfu/ml was mixed with respective 3 ml of aqueous solutions, each of which was obtained by diluting an aqueous solution of the above solid germicidal composition (1.0% by weight) with sterile water so that the concentration of the solid germicidal composition would be 0.01, 0.02 and 0.04% by weight, respectively. The obtained mixture was then left at 25° C. for 5 minutes. After sensitization time elapsed, stirring was carried out again. One platinum loop of each mixture was taken and inoculated in 10 ml of a BHI bouillon medium. The medium was incubated at 30° C. for 48 hours. A BHI bouillon medium without inoculation of the bacterium was used as a reference, and turbidity of the medium was compared with the reference by visual inspection to determine the germicidal effect of the aqueous solution of the solid germicidal composition on the bacterium.
# Sample Bacterium (i): Serratia marcescens (Bacterium 1 Isolated from a Food Factory)
SMILES,solubility in water at 20° C. [2],other results
"CCCCCCCCCC[n+]1ccn(CCCCCCCCCCn2cc[n+](CCCCCCCCCC)c2C)c1C.[Cl-].[Cl-] [1,10-di(3-decyl-2-methylimidazolium)decane dichloride]",–,development of drug-resistant microorganisms [1]: hardly developed
O=C(O)CC(O)C(=O)O (stereo not shown) [Malic acid],(solubility 55.8%),–
CCCCCCCCCC[N+](C)(C)CCCCCCCCCC.[Cl-] [didecyl dimethyl ammonium chloride],–,maximum concentration up to which proliferation of sample bacterium (i) was not inhibited [3]: > 80 ppm
O=C(O)/C=C/C(=O)O [Fumaric acid],(solubility 0.51%),–
